Test results: US20060079453A1, “Hla binding peptides and their uses” (priority 2002, published 2006)
No end group written: not given here.

Experiments:
Assay in all cases: biochemical
Type in all cases: binding
HLA-DR DRB1*0101 (DR1) = HLA-DR DRB1*0101 (DR1) (Homo sapiens, UniProt P01903+P01911, A100R/D57E/F55L/F60I/F76Y/I96L/L162R/M171V/P40L/Q125E/R42F/V115G/Y59C); conditions: DRB1 *0101
HLA-DR DRB1*0301 (DR3) = HLA-DR DRB1*0301 (DR3) (Homo sapiens, UniProt P01903+P01911, A100K/A102G/A103R/A169T/F55Y/I96L/K41T/L162R/M171V/P40S/Q125H/Q178H/Q39Y/R42S/S66N/T106N/T262R/W38E/Y61H)
Sequence of HLA-DR DRB1*0301 (DR3) (P01903 26-254 limits assumed, other chains not shown): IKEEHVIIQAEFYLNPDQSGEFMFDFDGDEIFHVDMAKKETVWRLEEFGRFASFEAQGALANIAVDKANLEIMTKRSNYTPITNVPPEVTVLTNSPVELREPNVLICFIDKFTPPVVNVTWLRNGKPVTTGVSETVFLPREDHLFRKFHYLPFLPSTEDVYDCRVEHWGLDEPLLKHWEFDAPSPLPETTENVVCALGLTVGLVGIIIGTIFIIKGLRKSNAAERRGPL

HLA-DR DRB1*0701 (DR7) = HLA-DR DRB1*0701 (DR7) (Homo sapiens, UniProt P01903+P01911, A100R/A102G/A103Q/D57E/D86V/E43K/F76Y/K127E/L162R/M171V/P40G/Q125H/Q99D/R33Q/R42Y/R54Q/S133A/S66F/T210M/V115G/Y107V/Y59L/Y89S); conditions: DRB1 *0701
HLA-DR DRB1*0802 (DR8) = HLA-DR DRB1*0802 (DR8) (Homo sapiens, UniProt P01903+P01911, A100R/A103L/A169T/F76Y/H45Y/I96F/K41T/L162R/M171V/P40S/Q125H/Q178H/Q39Y/Q99D/R218S/R42G/S66Y/V115G/W38E)
HLA-DR DRB1*0901 (DR9) = HLA-DR DRB1*0901 (DR9) (Homo sapiens, UniProt P01903+P01911, A100R/A103E/D57H/D86V/F55Y/F60I/F76Y/I96F/K127E/L162R/M171V/P40D/Q125H/Q99R/R33Q/R42F/S133A/S66N/T210M/V115G/W38K/Y107V/Y59G/Y89S); conditions: DRB1 *0901
HLA-DR DRB1*1101 (DR11) = HLA-DR DRB1*1101 (DR11) (Homo sapiens, UniProt P01903+P01911, A100R/A169T/A87E/I96F/K41T/L162R/M171V/P40S/Q125H/Q178H/Q39Y/Q99D/R42S/S66Y/T262R/V115G/W38E); conditions: DRB1 *1101
Sequence of HLA-DR DRB1*1101 (DR11) (P01903 26-254 limits assumed, other chains not shown): as above

HLA-DR DRB1*1302 (DR13) = HLA-DR DRB1*1302 (DR13) (Homo sapiens, UniProt P01903+P01911, A100E/A169T/K41T/L162R/M171V/P40S/Q125H/Q178H/Q39Y/Q99D/R42S/S66N/T262R/V115G/W38E/Y61H); conditions: DRBI *1302
Sequence of HLA-DR DRB1*1302 (DR13) (P01903 26-254 limits assumed, other chains not shown): as above

HLA-DR DRB1*1501 (DR15) = HLA-DR DRB1*1501 (DR15) (Homo sapiens, UniProt P01903+P01911); conditions: DRBI *1501
HLA-DR DRB3*0101 (DR52) = HLA-DR DRB3*0101 (DR52) (Homo sapiens, UniProt P01903+P79483)
HLA-DR DRB4*0101 (DR53) = HLA-DR DRB4*0101 (DR53) (Homo sapiens, UniProt P01903+P13762, G164S); conditions: DRB4 *0101
HLA-DR DRB5*0101 (DR51) = HLA-DR DRB5*0101 (DR51) (Homo sapiens, UniProt P01903+Q30154); conditions: DRB5 *0101
HLA-DR DRB1*0401 (DR4) = HLA-DR DRB1*0401 (DR4) (Homo sapiens, UniProt P01903+P01911, A100K/A169T/F76Y/I96L/K127E/L162R/M171V/N62H/P40V/Q125Y/R42H/S133A/S149N/S66Y/V115G/V209L/W38E); conditions: DRB1 *0401

Molecule	IC50 (HLA-DR DRB1*0101 (DR1)) [nM]	IC50 (HLA-DR DRB1*0301 (DR3)) [µM]	IC50 (HLA-DR DRB1*0701 (DR7)) [nM]	IC50 (HLA-DR DRB1*0802 (DR8)) [nM]	IC50 (HLA-DR DRB1*0901 (DR9)) [nM]	IC50 (HLA-DR DRB1*1101 (DR11)) [nM]	IC50 (HLA-DR DRB1*1302 (DR13)) [nM]	IC50 (HLA-DR DRB1*1501 (DR15)) [nM]	IC50 (HLA-DR DRB3*0101 (DR52)) [µM]	IC50 (HLA-DR DRB4*0101 (DR53)) [nM]	IC50 (HLA-DR DRB5*0101 (DR51)) [nM]	IC50 (HLA-DR DRB1*0401 (DR4)) [nM]
CC(C)C[C@H](NC(=O)[C@H](CO)NC(=O)[C@H](CC(C)C)NC(=O)[C@H](CO)NC(=O)[C@H](C)NC(=O)[C@H](C)NC(=O)[C@H](CCCNC(=N)N)NC(=O)[C@H](C)NC(=O)[C@H](CC(C)C)NC(=O)[C@H](CC(C)C)NC(=O)[C@H](CC(C)C)NC(=O)[C@@H]1CCCN1C(=O)[C@H](C)NC(=O)[C@H](C)N)C(=O)NCC(=O)O	6.8	35.4	160	30	64	100	3.2	35	10.5	79	79	
CSCC[C@H](NC(=O)[C@H](CC(C)C)NC(=O)[C@@H]1CCCN1C(=O)[C@@H](NC(=O)[C@@H](N)CS)[C@@H](C)O)C(=O)N[C@@H](Cc1ccc(O)cc1)C(=O)N[C@@H](CO)C(=O)N[C@@H](CC(C)C)C(=O)N[C@H](C(=O)N[C@@H](Cc1c[nH]cn1)C(=O)N[C@@H](CC(N)=O)C(=O)N[C@@H](CC(C)C)C(=O)N[C@H](C(=O)N[C@@H](CCCCN)C(=O)N[C@@H](CCC(=O)O)C(=O)O)[C@@H](C)O)C(C)C	93	19.4	140	223	249	590	260	426	18.3	58	36	
CC[C@H](C)[C@H](N)C(=O)N[C@@H](CCCCN)C(=O)N[C@@H](CCCCN)C(=O)N[C@@H](Cc1ccccc1)C(=O)N[C@@H](CC(C)C)C(=O)N[C@@H](Cc1ccc(O)cc1)C(=O)N[C@@H](CC(N)=O)C(=O)N[C@@H](Cc1ccccc1)C(=O)N[C@H](C(=O)N[C@@H](CCC(N)=O)C(=O)N[C@H](C(=O)N1CCC[C@H]1C(=O)N[C@@H](Cc1c[nH]cn1)C(=O)N[C@@H](CC(C)C)C(=O)N[C@@H](C)C(=O)O)[C@@H](C)CC)[C@@H](C)O	449	8.08	29	512	160	137	27	305	0.477	96		43
EVFFQRLGIASGRAR	28	> 75	5310	6.3	2980	31	17500	4560	> 15	51	7.9	
GVILYSDPADYFAPG	1570	0.017	7850	106000	2470	> 18900	39	965	0.0088	64		7510
NGVLQGITSWGSEPC	945	24.9	485	5870	819	9720	775	258	8.04	4490		560
NSRLLQERGVAYINA	614	0.318	8000	3220	2620	12800	327	1230	3.37	699	3470	
YDPLYCESVHNFTLP	1600	16.6	838	30900	643	30200	> 35000	2140	> 8.83	6900	28800	
